Laboratory results reported in US20100204129A1, “USE OF A PEPTIDE AS A THERAPEUTIC AGENT” (priority 2008, published 2010).
Non-standard residues stand in square brackets, D forms with d. Residues, ends and D or L forms follow the SMILES beside them.

Key:
[1] = tested on: HIV-1IIIB; assay: HIV-1 antiviral assay (CPE reduction, MTS); format: cell-based; settings: peptide 10 micrograms per ml, 6 days post-infection
[2] = tested on: A549 cells; assay: Propidium iodide cell cycle assay; format: cell-based, human; settings: peptide 10 micrograms per ml, 24 hours, FACS
From the text: Human A549 cells (carcinomic human alveolar basal epithelial cells) were utilized in the experiments employing the Propidium iodide cell cycle assay. The eukaryotic cell cycle is a series of events that take place in a cell leading to its replication. The regulation of the cell cycle involves steps crucial to the cell, including detecting and repairing genetic damage, and provision of various checks to prevent uncontrolled cell division. The molecular events that control the cell cycle are ordered and directional; that is, each process occurs in a sequential fashion. The cell cycle consists of four distinct phases: G1 phase, S phase, G2 phase (collectively known as interphase) and M phase. M phase is itself composed of two tightly coupled processes: mitosis, in which the cell's chromosomes are divided between the two daughter cells, and cytokinesis, in which the cell's cytoplasm divides forming distinct cells. Activation of each phase is dependent on the proper progression and completion of the previous one. Cells that have temporarily or reversibly stopped dividing are said to have entered a state of quiescence called Go phase. The relatively brief M phase consists of nuclear division and cytoplasmic division. The first phase within interphase, from the end of the previous M phase till the beginning of DNA synthesis is called G1 (G indicating gap or growth). During this phase the biosynthetic activities of the cell resume at a high rate. This phase is marked by synthesis of various enzymes that are required in S phase, mainly those needed for DNA replication. The ensuing S phase starts when DNA synthesis commences; when it is complete, all of the chromosomes have been replicated. The cell then enters the G2 phase, which lasts until the cell enters mitosis. Significant protein synthesis occurs during this phase, mainly involving the production of microtubules, which are required during the process of mitosis. […]
Propidium iodide is an intercalating agent and a fluorescent molecule that can be used to stain DNA. […] After incubation for 40 min at 37° C., cells were analyzed in the FACS.

[3] = tested on: Human Peripheral Blood Mononuclear Cells (PBMC); assay: B cell proliferation assay (SAC plus Interleukin-2, 3H-thymidine); format: cell-based; settings: peptide 10 micrograms per ml, 3H-thymidine incorporation
Procedure: Human Peripheral Blood Mononuclear Cells (PBMC) were obtained from normal human donors. The B cell proliferation was induced by stimulation of the cells with the B cell mitogen Staphylococcus aureus Cowans I (SAC) plus Interleukin-2, either in the absence (positive proliferation control), or in the presence of test peptide—10 micrograms per ml—to examine their effects on the B cell response. 10^5/well PBMC were plated in 96-well microtiter plates and assayed in duplicate with the peptide. Cell cultures were incubated at 37° C. for 3 days in a 5% CO2 incubator and were thereafter pulsed with 1 microCi/well ^3H-thymidine for additional 12 hours of culture. At the end of incubation time, the plates were harvested and the cells counted by liquid scintillation for the incorporation of ^3H-thymidine as a measure of B cell proliferation.

[4] = tested on: A549 cells; assay: Apoptosis induction assay (Annexin-5); format: cell-based, human; settings: apoptosis induction in A549 cells, 24 hours exposure
From the text: Human A549 cells (carcinomic human alveolar basal epithelial cells) were utilized in the experiments employing the Annexin-5 apoptosis assay. Annexin-5 is a member of a highly conserved protein family that binds acidic phospholipids in a calcium-dependent manner. […] Phosphatidylserine is translocated from the inner side of the plasma membrane to the outer layer when cells undergo death by apoptosis or cell necrosis and serves as a signal by which cell destined for death are recognized by phagocytes. Test peptide—[…]—were exposed for 24 hours to the A549 cells before they were analyzed for signs of apoptosis.

[5] = tested on: TNF alpha; assay: TNF alpha production assay (LPS-stimulated macrophages, ELISA); format: cell-based, human; settings: macrophages from PBMC, peptide 10 micrograms per ml, lipopolysaccharide 200 ng/ml, overnight
Procedure: Human Peripheral Blood Mononuclear Cells (PBMC) were obtained from normal human donors. The macrophages were prepared by adherence of PBMC to the plastic wells of the plates. After 8 days in culture in the presence of recombinant human macrophage-colony stimulating factor at 2 ng/ml, differentiated macrophages were preincubated with test peptide—10 micrograms per ml—for 30 min, followed by in-well stimulation by the addition of lipopolysaccharide at a final concentration of 200 ng/ml. Not stimulated macrophages served as negative background control.
After overnight incubation, supernatants from the control and LPS-stimulated cultures were harvested and assayed for TNF alpha production employing a TNF alpha specific ELISA.

[6] = tested on: HUVEC; assay: Endothelial tube formation assay; format: cell-based, human; settings: peptide 10 micrograms per ml, 20 hours
Procedure: The endothelial tube formation assay is based on the ability of endothelial cells to form three-dimensional capillary-like tubular structures when cultured on a gel of basement membrane extract. The endothelial tube formation assay represents a powerful model for studying inhibition and induction of angiogenesis. Pre-labeled HUVEC with Calcein AM were seeded in a 96-well culture plate coated with extracellular metrix (Chemicon international Cat. ECM625) and treated with test peptide—10 micrograms per ml—in full growth medium. […] control was vehicle only. The endothelial cells were allowed to form tubes for 20 hours and were then examined under an inverted fluorescent microscope. Duplicate wells for each treatment were photographed and quantitatively analyzed for an average tubule length using image analysis software ImageProPlus. Raw data were expressed as average tubule lengths in pixels ±standard deviation. Statistic p values were computed using the Student's t-test.

[7] = in vitro; settings: human
[8] = tested on: HCMV strain AD169; assay: HCMV plaque reduction assay in MRC-5 cells; settings: HCMV in MRC-5 cells; peptide 10 micrograms per ml; 7-10 days
[9] = Cytotoxicity in HIV-1 assay (MTS cell viability); settings: human, CEM-SS cells (uninfected, cells plus peptide only)

## CC(C)C[C@H](NC(=O)[C@H](CC(C)C)NC(=O)[C@@H](Cc1c[nH]c2ccccc12)NC(=O)[C@H](Cc1ccccc1)NC(=O)[C@@H](Cc1c[nH]c2ccccc12)NC(=O)[C@H](CCC(N)=O)NC(=O)[C@H](CCC(N)=O)NC(=O)[C@@H]1CCCN1C(=O)[C@H](CCCCN)NC(=O)[C@@H]1CCCN1C(=O)[C@@H](CCCNC(=N)N)NC(=O)[C@@H]1CCCN1C(=O)CNC(=O)[C@H](CC(C)C)NC(=O)[C@H](CC(C)C)NC(=O)[C@H](Cc1ccc(O)cc1)NC(=O)CNC(=O)[C@H](C)NC(=O)[C@H](CO)NC(=O)[C@H](CC(N)=O)NC(=O)[C@H](CC(C)C)NC(=O)[C@@H](NC(=O)[C@H](Cc1c[nH]c2ccccc12)NC(=O)CN)[C@@H](C)O)C(N)=O [Spantide-I, Gly-Trp-Thr-Leu-Asn-Ser-Ala-Gly-Tyr-Leu-Leu-Gly-Pro-D-Arg-Pro-Lys-Pro-Gln-Gln-D-Trp-Phe-D-Trp-Leu-Leu-NH2] (H-GWTLNSAGYLLGP[dR]PKPQQ[dW]F[dW]LL-NH2)
[1]
  % CPE reduction in HIV-1 infected CEM-SS cells: 0.0%
[2]
  Cell cycle analysis G0/G1: 61.6
  Cell cycle analysis G2/M: 7.7
  Cell cycle analysis S: 30.7
[3]
  % of SAC/IL2 induced control: 106.6%
[4]
  % of induction: 1.4%
[5]
  % of LPS induction: 101.4%
[6]
  % inhibition of tube formation: 1%
[7]
  viability at 144 h, 10 micrograms per ml: 100%
[8]
  % plaque reduction: 0.0%
[9]
  viability at 10 micrograms per ml: 100%
